This passage reports IC50 results from ChEMBL document CHEMBL3797136, “Insights into the structure-activity relationship of the anticancer compound ZJ-101: A critical role played by the cyclohexene ring” (Bioorg Med Chem Lett, 2016).

Format in all cases: functional, cell-based
The test system of one test is RKO. Put plainly: Antiproliferative activity against human RKO cells assessed as cell viability by Alamar Blue assay. For orientation: The colour change of resazurin is a common sign of viable cells or microbes.
A further test concerns MDA-MB-231. As to the kind of experiment: Antiproliferative activity against human MDA-MB-231 cells assessed as cell viability by Alamar Blue assay.
Test [1] in a line: Antiproliferative activity against human SF295 cells assessed as cell viability by Alamar Blue assay. The following applies: SF-295.
Test [2] can be described thus: Antiproliferative activity against human […] assessed as cell viability by Alamar Blue assay.

Some results are limits rather than exact numbers.

For orientation: IC50 means the midpoint of a concentration-inhibition curve.

As for `CC(=O)N[C@H](C)[C@@H](O)[C@@H](C)[C@@H]1OC(=O)/C=C/C=C(C)\C=C\[C@]2(C)CCC=C[C@@H]2/C=C(C)/C=C/[C@H]1C`, the IC50 was determined as 154 nM with RKO, 42.8 nM in the test on MDA-MB-231, 66.1 nM in test [1] and 36.2 nM in test [2].
For `CC(=O)N[C@H](C)[C@@H](O)[C@@H](C)[C@@H]1OC(=O)/C=C/C=C(C)\C=C\c2ccccc2/C=C(C)/C=C/[C@H]1C`, in that order: over 5000 nM, over 5000 nM, over 5000 nM and 2200 nM.
